The values that follow are results of earlier work, collected in patent publication US20230226121A1, “Honey Foam” (priority 2022, published 2023).

SMILES strings stand for the structures.

Data set [1] has as its system Escherichia Coli ATCC 25922.
The test system of data set [2] is Staphylococcus aureus ATCC 29213.

With `CCN(CC)CC(=O)Nc1c(C)cccc1C` [lidocaine], the MIC in data set [1] was 5 Mg/ml; in data set [2], 20 Mg/ml.
